# Read-outs that look alike come from different tables or passages of the source.
# Key:
# Assay type in all cases: in vivo
# [1] = tested on: Alopecurus myosuroides Huds.; assay: Foliar application test on Alopecurus myosuroides Huds. in upland field condition; details: 672 h, fresh weight day 28, read-out: Inhibitory rate (%); for inhibition at 1000 g/ha: dose 1000 g a.i./ha; for inhibition at 2000 g/ha: dose 2000 g a.i./ha
# Excerpt: Next, Test Examples of the herbicide compositions according to the invention will be presented. In the following Test Examples, the ingredient (A) was mixed with the ingredient (B), (C), (D), (E) or (F) in practice. As a result, an effect exceeding the effect expected from the effects achieved by using the individual ingredients solely (i.e., a synergistic effect) was observed. The term “synergistic effect” means the effect achieved in the case where the effect achieved by two or more chemicals acting simultaneously exceeds the additive effect expected from the activities of the respective chemicals used solely. The activity expected by using a specific combination of two herbicides (hereinafter called “expectation”) can be calculated in accordance with the following Colby's formula (refer to Colby, S. R., Weeds, 15, p. 20 to 22 (1967)).
# (§1) E=X+Y−(X×Y/100) Numerical formula 1
# (§2) (In the above formula, E represents an inhibitory rate expected in the case of applying a mixture of p kg/ha of a herbicide A and q kg/ha of another herbicide B. X represents the inhibitory rate achieved by the application of p kg/ha of the herbicide A. Y represents the inhibitory rate achieved by the application of q kg/ha of the herbicide B.)
# (§3) When the effect achieved by the mix application in practice exceeds the value E, the combination can be regarded as achieving a synergistic effect. Inhibitory rate was determined in accordance with the following numerical formula 2.
# (§4) Inhibitory rate(%)=(1−fresh weight in treated lot/fresh weight in untreated lot)×100 Numerical formula 2
# A resin vat having an area of 200 cm^2 was filled with upland soil that was diluvial clay loam soil. After fertilization, Alopecurus myosuroides Huds. was sowed and the seeds were evenly covered with the soil. Then, the plants were grown under controlled conditions in a greenhouse. When the test weeds grew to the 2.0 to 2.5 leaf stage, each herbicide having been diluted at a definite concentration and mixed was uniformly sprayed to the foliage with a small-sized high pressure sprayer. The preparation containing the ingredient (A) alone was prepared in accordance with Formulation Example 1 but adding diatomaceous earth to compensate for the decrease in the ingredient (B), (C) or (F). As the preparations respectively containing the ingredients (B) and (C) alone, marketed flowables were employed. As the preparation containing the ingredient (F) alone, a marketed emulsifiable concentrate was employed. The mixed preparations were prepared by mixing the same. Then, the plants were grown under controlled conditions in the greenhouse. On the day 28 after the application, the fresh weight of the above-ground part of each weed was measured and the inhibitory rate (%) was determined in accordance with Numerical Formula 2 and the expectation was calculated in accordance with Numerical Formula 1, Tables 2 and 3 show the results.
# [2] = tested on: Stellaria media Villars; assay: Foliar application test on Stellaria media Villars in upland field condition; details: day 28
# Excerpt: (§5) Next, Test Examples of the herbicide compositions according to the invention will be presented. In the following Test Examples, the ingredient (A) was mixed with the ingredient (B), (C), (D), (E) or (F) in practice. […] The term “synergistic effect” means the effect achieved in the case where the effect achieved by two or more chemicals acting simultaneously exceeds the additive effect expected from the activities of the respective chemicals used solely.
# as §1, §2, §3, §4
# (§6) A resin vat having an area of 200 cm^2 was filled with upland soil that was diluvial clay loam soil. After fertilization, Stellaria media Villars and Matricaria inodora L. were sowed and the seeds were evenly covered with the soil. Then, the plants were grown under controlled conditions in a greenhouse. When the test weeds grew to the 2.0 to 2.5 leaf stage, each herbicide having been diluted at a definite concentration and mixed was uniformly sprayed to the foliage with a small-sized high pressure sprayer. […] As the preparation containing the ingredient (D) alone, marketed wettable granules were employed. As the preparation containing the ingredient (E) alone, a marketed flowable was employed. The mixed preparations were prepared by mixing the same. Then, the plants were grown under controlled conditions in the greenhouse.
# [3] = tested on: Matricaria inodora L.; assay: Foliar application test on Matricaria inodora L. in upland field condition; details: day 28
# Excerpt: as §5, §1, §2, §3, §4, §6
# [4] = Table 5, single ingredient, dose 2 g a.i./ha
# [5] = Table 5, single ingredient, dose 4 g a.i./ha
# [6] = Table 4, single ingredient, dose 5 g a.i./ha
# [7] = Table 4, single ingredient, dose 10 g a.i./ha
smiles,measurement,setting,value
"CCC(CC)Nc1c([N+](=O)[O-])cc(C)c(C)c1[N+](=O)[O-] [(C), pendimethalin]",inhibition at 1000 g/ha,"[1]; Table 2, single ingredient",16%
same,inhibition at 2000 g/ha,"[1]; Table 2, single ingredient",22%
"COc1ncc(F)c2nc(S(=O)(=O)Nc3c(F)cccc3F)nn12 [(E), florasulam]",Inhibitory rate (%),[2]; [4],75%
same,Inhibitory rate (%),[2]; [5],90%
same,Inhibitory rate (%),[3]; [4],70%
same,Inhibitory rate (%),[3]; [5],80%
"CCCN(CCC)c1c([N+](=O)[O-])cc(C(F)(F)F)cc1[N+](=O)[O-] [(F), trifluralin]",inhibition at 1000 g/ha,"[1]; Table 3, single ingredient",55%
same,inhibition at 2000 g/ha,"[1]; Table 3, single ingredient",85%
"COC(=O)c1ccc(C(F)(F)F)nc1S(=O)(=O)[N-]C(=O)Nc1nc(OC)cc(OC)n1.[Na+] [(D), sodium salt of flupyrsulfuron-methyl]",Inhibitory rate (%),[2]; [6],77%
same,Inhibitory rate (%),[2]; [7],85%
same,Inhibitory rate (%),[3]; [6],46%
same,Inhibitory rate (%),[3]; [7],67%
"CC(C)c1ccc(NC(=O)N(C)C)cc1 [(B), isoproturon]",inhibition at 1000 g/ha,"[1]; Table 2, single ingredient",69%
same,inhibition at 2000 g/ha,"[1]; Table 2, single ingredient",90%
